The test system of assay [1] is C57BL/10 IL-10-deficient mice. As to the kind of experiment: IL-10-deficient mouse colitis model, disease activity index (DAI). Type of assay: in vivo. As to conditions: for effect on established colitis (disease activity index): n=12 per group. The method, then: The DAI was calculated by scoring 1 point for the appearance of each of the following: ruffled fur, occult fecal blood as determined on a Hemoccult Sensa® card (Smith Kline Diagnostics, San Jose, Calif.), rectal prolapse <1 mm, and soft stool. The mice were scored an additional point for diarrhea or severe rectal prolapse >1 mm. The mean with standard error bars of the DAI are plotted for pretreatment and then at the end of each week of treatment (n=12 per group).
The preferred, and widely used, model for testing is the IL-10-deficient (KO) mouse (on a C57BL/10 strain background). As described in the Examples, colonies of C57BL/10 IL-10 KO mice are bred and used. These mice consistently develop colitis at 10-12 weeks of age when transported from the ultra-barrier facility to conventional housing. These mice are used to test the effect of a candidate anti-angiogenic agent on pathogenesis and treatment of established disease.
Colonies of C57BL/10 IL-10-deficient mice were routinely bred at the Case Western Reserve University Animal Research Center for studies of early and late colitis. These mice consistently develop colitis at 10-12 weeks of age when transported from the ultra-barrier facility to conventional housing. These mice were used to test the effect of ATN 161 (Ac-PHSCN—NH2) on both the development and treatment of established disease.
ATN-161 had no effect on the development of colitis in this model when treatment was initiated at the time that the mice were moved to conventional housing. […] A scrambled peptide version of ATN-161 (ATN-163; Ac-HSPNC—NH2) was used as a control and had no effect on established colitis in this model. ATN-163 and vehicle controls were indistinguishable in these studies (data not shown).

The subject of assay [2] is C57BL/10 IL-10-deficient mice. Kind of assay: Microvessel density in colon sections by anti-CD31 immunostaining. Type of assay: in vivo, mouse. The following applies: zinc fixed colon sections. As for the experimental part:
FIG. 4 is a graph showing an analysis of microvessel density using anti-CD31 immunostaining. Immunostaining was performed using the mouse CD31 specific mAb MEC 13.3 (Becton-Dickinson, San Diego, Calif.). Morphometric analysis was carried out using an international consensus for the quantification of angiogenesis (Vermeulen P B et al., Eur J Cancer 32A:2474-84; Eur J Cancer 38:1564-15). In particular stained colonic sections were scanned at low power (40×) to detect the most vascularized area, after which at least 5 microphotographs at 200× magnification were taken in the mucosa and in the submucosa. The number of vessels/field (mean vascular density) was performed using Image Pro Plus Software (Media Cybernetics, Silver Spring, Md.).
Microvessel density as a measure of angiogenesis was determined in zinc fixed colon sections.

The subject of assay [3] is C57BL/10 IL-10-deficient mice. As to the kind of experiment: Histologic grading for colitis of colon at Week 6. The following applies: end of Week 6; ATN-161 versus ATN-163 treated group. Type of assay: in vivo, mouse. As for the experimental part: FIG. 2 is a graph summarizing the histologic grading for colitis at Week 6. Grading of intestinal inflammation was determined in a blinded fashion by three readers: no inflammation (0); modest numbers of infiltrating cells in the lamina propria (1); infiltration of mononuclear cells leading to separation of crypts and mild mucosal hyperplasia (2); massive infiltration with inflammatory cells accompanied by disrupted mucosal architecture, loss of goblet cells, and marked mucosal hyperplasia (3); all of the above plus crypt abscesses or ulceration (4).
Animals were euthanized at the end of Week 6 and the colon removed for histologic analysis.

The test system of another assay is cell adhesion. As to conditions: cited from earlier work.
The test system of assay [4] is IL-6. As to the kind of experiment: IL-6 production in vitro by LPMC extracts and splenocytes. The following applies: lamina propria mononuclear cell (LPMC) extracts and splenocytes. The class given is cell-based. The method, then: (§1) The effect of ATN-161 on IL-6 and IL-12 expression was also evaluated in vitro using lamina propria mononuclear cell (LPMC) extracts and splenocytes.

Assay [5] relates to IL-6. As to the kind of experiment: IL-6 in supernatants of cultured colon fragments from treated mice (ELISA). Type of assay: in vivo, mouse. As to conditions: 48 hours culture; versus ATN-163 treated controls. As for the experimental part:
(§2) FIGS. 3A and 3B are graphs showing that colon fragments from ATN-161 treated mice expressed lower levels of IL-12 and IL-6. Fragments of colon from mice treated with ATN-161 or ATN-163 were cultured in RPMI media +2% fetal bovine serum and 2.5% PSF (antibiotic-antimycotic). After 48 hours, supernatants were harvested and kept frozen at −80 C. FIG. 3A: IL-12(p40) was analyzed using an ELISA in which plates had been coated with the monoclonal antibody C15.6. FIG. 3B: IL-6 was analyzed using a commercially available ELISA kit specific for mouse IL-6 (R&D Systems, Minneapolis, Minn.).
(§3) Biopsies were also cultured in vitro and the supernatants analyzed for IL-6 and IL-12 expression as previously described (Spencer D M et al., 2002, Gastroenterology 122:94-105). IL-6 and IL-12 are inflammatory cytokines that have been correlated with the pathogenesis of colitis (Mahida Y R, 2000, Inflamm Bowel Dis 6:21-33).

The test system of assay [6] is human colon cancer cells (HT29). The following applies: HT29 do not express integrin α5β1; cited from earlier work.
The subject of a further assay is IL-12(p40). Kind of assay: IL-12 in supernatants of cultured colon fragments from treated mice (ELISA). Type of assay: in vivo, mouse. The following applies: 48 hours culture; versus ATN-163 treated controls. As for the experimental part: as §2, §3
For orientation: In an ELISA, binding on a coated surface is turned into a signal by an enzyme label.

The subject of the next assay is tumor angiogenesis. As to conditions: cited from earlier work.
In the next assay the test system is IL-12. Kind of assay: IL-12 production in vitro by LPMC extracts and splenocytes. The class given is cell-based. As to conditions: lamina propria mononuclear cell (LPMC) extracts and splenocytes. As for the experimental part:
as §1

Entries after “also recorded” stand apart in the source; their conditions may differ.

Here are results for two substances from patent US20090312243A1, “TREATMENT OF INFLAMMATORY BOWEL DISEASE (IBD) WITH ANTI-ANGIOGENIC COMPOUNDS” (priority 2005, published 2009).

For the substance Ac-PHSCN—NH2 (Ac-PHSCN-NH2) [ATN-161], in [1] (mice with established disease), the “treatment time after which the reduction of colitis was observed” value is reported as “approximately four” and the “effect on established colitis (disease activity index)” value was “consistently reduced colitis; also recorded: reduces established colitis”. Moreover, the “effect on the development of colitis” value in assay [1] (treatment initiated at the time the mice were moved to conventional housing) is given as “no effect”. In assay [2], the “reduction of microvessels versus ATN-163 treated controls” value is on record as “approximately 40%”. For the same substance, in assay [3], the histologic score entry is “significantly lower”. In addition, the “effect on cell adhesion” value with cell adhesion is reported as “does not affect cell adhesion”. Moreover, in the assay with IL-6 [4], the “effect on IL-6 production” value is “no effect”. For the same substance, the “IL-6 level in colon fragment organ culture” value in the assay on IL-6 [5] is recorded as “significantly lower levels”. In addition, the “in vivo growth of xenografted HT29 cells” value in [6] is on record as “significantly reduced”. In the assay with IL-12(p40), the “IL-12 level in colon fragment organ culture” value was “significantly lower levels”. Besides, the “effect on efficacy of 5-fluorouracil” value with tumor angiogenesis (combination with 5-fluorouracil) was “enhance the efficacy”. Moreover, in the assay on tumor angiogenesis (in vivo), the “effect on tumor angiogenesis” value is listed as “inhibited tumor angiogenesis”. In the assay on IL-12, the “effect on IL-12 production” value is recorded as “no effect”.

On to “Ac-HSPNC—NH2 (Ac-HSPNC-NH2) [ATN-163, reference compound]”, for which, in assay [1] (mice with established disease), the “effect on established colitis (disease activity index)” value is recorded as “no effect”.
